Reference: patent US12157746B2, “Tetrahydro-1H-pyrazino[2,1-a]isoindolylquinoline compounds for the treatment of autoimmune disease” (F. HOFFMANN-LA ROCHE AG, priority 2018, dated 2024)
pIC50: −log10 of the molar value.

Target: T1, human TLR9 (Homo sapiens, UniProt Q9NR96)
T1 sequence (Q9NR96 26-1032): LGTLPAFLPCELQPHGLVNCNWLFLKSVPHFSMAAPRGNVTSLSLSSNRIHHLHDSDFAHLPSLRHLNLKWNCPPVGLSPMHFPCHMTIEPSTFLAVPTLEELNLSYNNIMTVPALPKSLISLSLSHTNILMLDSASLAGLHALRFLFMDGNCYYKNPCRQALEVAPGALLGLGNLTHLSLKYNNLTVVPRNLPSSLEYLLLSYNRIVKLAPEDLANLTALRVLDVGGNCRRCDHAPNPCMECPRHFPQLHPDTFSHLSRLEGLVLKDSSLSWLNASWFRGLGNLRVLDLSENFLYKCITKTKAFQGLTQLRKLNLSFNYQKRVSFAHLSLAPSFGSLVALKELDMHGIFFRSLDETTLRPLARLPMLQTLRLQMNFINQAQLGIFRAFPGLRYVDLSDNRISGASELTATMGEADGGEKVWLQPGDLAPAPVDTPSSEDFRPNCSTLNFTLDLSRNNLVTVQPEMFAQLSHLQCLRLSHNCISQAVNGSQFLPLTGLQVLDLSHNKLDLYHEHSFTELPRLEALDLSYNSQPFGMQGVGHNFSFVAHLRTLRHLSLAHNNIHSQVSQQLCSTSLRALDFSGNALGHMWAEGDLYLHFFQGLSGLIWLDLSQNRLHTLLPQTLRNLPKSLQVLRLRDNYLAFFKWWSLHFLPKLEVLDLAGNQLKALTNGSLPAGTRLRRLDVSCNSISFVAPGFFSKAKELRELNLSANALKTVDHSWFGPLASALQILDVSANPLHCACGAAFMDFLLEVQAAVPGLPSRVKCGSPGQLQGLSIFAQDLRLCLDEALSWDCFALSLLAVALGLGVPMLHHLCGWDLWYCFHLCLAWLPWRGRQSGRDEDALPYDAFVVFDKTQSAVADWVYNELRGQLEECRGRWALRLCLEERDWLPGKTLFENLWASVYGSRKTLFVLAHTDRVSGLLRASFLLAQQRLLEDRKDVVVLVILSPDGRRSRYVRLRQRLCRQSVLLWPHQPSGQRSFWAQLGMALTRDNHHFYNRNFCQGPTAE
Assay: HEK293-Blue-hTLR-9 cells assay
Format: cell-based
Settings: HEK293-Blue-hTLR9 cells, ODN2006 stimulation, 20 hrs, SEAP reporter; read-out: HEK/hTLR9 IC50
Outline: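 Antagonist mode in HEK293-Blue hTLR9 reporter cells (SEAP under NF-κB/AP-1 sites), stimulated with ODN2006 added from a 20 uM solution. Serially diluted compound (1% DMSO final) was incubated 20 hrs at 37° C. Supernatant SEAP was developed with QUANTI-Blue for 2 h at 37° C and read at 620˜655 nm.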

| pIC50 | Compound |
| --- | --- |
| 7.14 | CO[C@@H]1CNC[C@H]1Nc1cc2c(cc1C)[C@H]1CN(c3ccc(C#N)c4ncccc34)C[C@@H](C)N1C2 [Example 63, 5-[(4R,10bS)-8-[[(3R,4R)-4-methoxypyrrolidin-3-yl]amino]-4,9-dimethyl-3,4,6,10b-tetrahydro-1H-pyrazino[2,1-a]isoindol-2-yl]quinoline-8-carbonitrile] |
| 7.08 | C[C@@H]1CN(c2ccc(C#N)c3ncccc23)C[C@@H]2c3ccc(N[C@@H]4CNCCOC4)cc3CN12 [Example 56A, 5-[(4R,10bS)-4-methyl-8-[[(6R)-1,4-oxazepan-6-yl]amino]-3,4,6,10b-tetrahydro-1H-pyrazino[2,1-a]isoindol-2-yl]quinoline-8-carbonitrile] |
| 7.13 | C[C@@H]1CN(c2ccc(C#N)c3ncccc23)C[C@@H]2c3ccc(NC[C@@H]4C[C@H](F)CN4)cc3CN12 [Example 70, 5-[(4R,10bS)-8-[[(2S,4S)-4-fluoropyrrolidin-2-yl]methylamino]-4-methyl-3,4,6,10b-tetrahydro-1H-pyrazino[2,1-a]isoindol-2-yl]quinoline-8-carbonitrile] |
| 6.85 | C[C@@H]1CN(c2ccc(C(F)(F)F)c3nccnc23)C[C@@H]2c3ccc(N[C@H]4CNC[C@H]4F)cc3CN12 [Example 77, (4R,10bS)—N-[(3S,4R)-4-fluoropyrrolidin-3-yl]-4-methyl-2-[8-(trifluoromethyl)quinoxalin-5-yl]-3,4,6,10b-tetrahydro-1H-pyrazino[2,1-a]isoindol-8-amine] |
| 7.07 | C[C@@H]1CN(c2ccc(C#N)c3ncccc23)C[C@@H]2c3ccc(NC[C@@H]4CNCCO4)cc3CN12 [Example 58, 5-[(4R,10bS)-4-methyl-8-[[(2S)-morpholin-2-yl]methylamino]-3,4,6,10b-tetrahydro-1H-pyrazino[2,1-a]isoindol-2-yl]quinoline-8-carbonitrile] |
| 7.04 | C[C@@H]1CN(c2ccc(C#N)c3ncccc23)C[C@@H]2c3ccc(N[C@H]4CNCCOC4)cc3CN12 [Example 56B, 5-[(4R,10bS)-4-methyl-8-[[(6S)-1,4-oxazepan-6-yl]amino]-3,4,6,10b-tetrahydro-1H-pyrazino[2,1-a]isoindol-2-yl]quinoline-8-carbonitrile] |
| 6.85 | CO[C@H]1CNCC[C@H]1Nc1ccc2c(c1)CN1[C@H](C)CN(c3ccc(C#N)c4ncccc34)C[C@H]21 [Example 66, 5-[(4R,10bS)-8-[[(3S,4R)-3-methoxy-4-piperidyl]amino]-4-methyl-3,4,6,10b-tetrahydro-1H-pyrazino[2,1-a]isoindol-2-yl]quinoline-8-carbonitrile] |
| 7.08 | C[C@@H]1CN(c2ccc(C#N)c3ncsc23)C[C@@H]2c3ccc(N[C@H]4CNC[C@H]4F)cc3CN12 [Example 78, 7-[(4R,10bS)-8-[[(3S,4R)-4-fluoropyrrolidin-3-yl]amino]-4-methyl-3,4,6,10b-tetrahydro-1H-pyrazino[2,1-a]isoindol-2-yl]-1,3-benzothiazole-4-carbonitrile] |
| 6.82 | Cc1ccc(N2C[C@@H](C)N3Cc4cc(N[C@H]5CNC[C@H]5F)ccc4[C@H]3C2)c2nccnc12 [Example 76, (4R,10bS)—N-[(3S,4R)-4-fluoropyrrolidin-3-yl]-4-methyl-2-(8-methylquinoxalin-5-yl)-3,4,6,10b-tetrahydro-1H-pyrazino[2,1-a]isoindol-8-amine] |
| 7.13 | C[C@@H]1CN(c2ccc(C#N)c3ncccc23)C[C@@H]2c3ccc(NC[C@H]4CNCCO4)cc3CN12 [Example 59, 5-[(4R,10bS)-4-methyl-8-[[(2R)-morpholin-2-yl]methylamino]-3,4,6,10b-tetrahydro-1H-pyrazino[2,1-a]isoindol-2-yl]quinoline-8-carbonitrile] |

The remaining lines, values behind:

| Compound | pIC50 |
| --- | --- |
| C[C@@H]1CN(c2ccc(C#N)c3ncccc23)C[C@@H]2c3cc(F)c(N4C[C@H](N)[C@@](C)(O)C4)cc3CN12 [Example 83, 5-[(4R,10bS)-8-[(3S,4S)-4-amino-3-hydroxy-3-methyl-pyrrolidin-1-yl]-9-fluoro-4-methyl-3,4,6,10b-tetrahydro-1H-pyrazino[2,1-a]isoindol-2-yl]quinoline-8-carbonitrile] | 6.77 |
| C[C@@H]1CN(c2ccc(C#N)c3ncccc23)C[C@@H]2c3ccc(NCC4COCCN4)cc3CN12 (stereo partly drawn) [Example 57, 5-[(4R,10bS)-4-methyl-8-(morpholin-3-ylmethylamino)-3,4,6,10b-tetrahydro-1H-pyrazino[2,1-a]isoindol-2-yl]quinoline-8-carbonitrile] | 6.98 |
| C[C@@H]1CN(c2ccc(C#N)c3ncccc23)C[C@@H]2c3cc(F)c(N4CC5(CNC5)C4)cc3CN12 [Example 84, 5-[(4R,10bS)-8-(2,6-diazaspiro[3.3]heptan-2-yl)-9-fluoro-4-methyl-3,4,6,10b-tetrahydro-1H-pyrazino[2,1-a]isoindol-2-yl]quinoline-8-carbonitrile] | 6.73 |
| CO[C@H]1CNC[C@@H]1N(C)c1ccc2c(c1)CN1[C@H](C)CN(c3ccc(C#N)c4ncccc34)C[C@H]21 [Example 64, 5-[(4R,10bS)-8-[[(3S,4S)-4-methoxypyrrolidin-3-yl]-methyl-amino]-4-methyl-3,4,6,10b-tetrahydro-1H-pyrazino[2,1-a]isoindol-2-yl]quinoline-8-carbonitrile] | 6.90 |
| C[C@@H]1CN(c2ccc(C#N)c3ncccc23)C[C@@H]2c3ccc(N4C[C@@H]5CNCCN5C4=O)cc3CN12 [Example 71, 5-[(4R,10bS)-8-[(8aS)-3-oxo-1,5,6,7,8,8a-hexahydroimidazo[1,5-a]pyrazin-2-yl]-4-methyl-3,4,6,10b-tetrahydro-1H-pyrazino[2,1-a]isoindol-2-yl]quinoline-8-carbonitrile] | 6.94 |
| C[C@@H]1CN(c2ccc(C#N)c3ncccc23)C[C@@H]2c3ccc(OC[C@@H]4C[C@H](F)CN4)cc3CN12 [Example 74, 5-[(4R,10bS)-8-[[(2S,4S)-4-fluoropyrrolidin-2-yl]methoxy]-4-methyl-3,4,6,10b-tetrahydro-1H-pyrazino[2,1-a]isoindol-2-yl]quinoline-8-carbonitrile] | 6.87 |
| [2H]c1ccc2c(N3C[C@@H](C)N4Cc5cc(N6CC7(CNCCO7)C6)ccc5[C@H]4C3)ccc(C#N)c2n1 [Example 90, 5-[(4R,10bS)-4-methyl-8-(5-oxa-2,8-diazaspiro[3.5]nonan-2-yl)-3,4,6,10b-tetrahydro-1H-pyrazino[2,1-a]isoindol-2-yl]-2-deuterio-quinoline-8-carbonitrile] | 6.79 |
| C[C@@H]1CN(c2ccc(C#N)c3ncccc23)C[C@@H]2c3ccc(N4C[C@H]5CNCCN5C4=O)cc3CN12 [Example 72, 5-[(4R,10bS)-8-[(8aR)-3-oxo-1,5,6,7,8,8a-hexahydroimidazo[1,5-a]pyrazin-2-yl]-4-methyl-3,4,6,10b-tetrahydro-1H-pyrazino[2,1-a]isoindol-2-yl]quinoline-8-carbonitrile] | 6.97 |
| C[C@@H]1CN(c2ccc(C#N)c3ncccc23)C[C@@H]2c3cccc(NCCN4CC[C@H](O)C4)c3CN12 [Example 80, 5-[(4R,10bS)-7-[2-[(3S)-3-hydroxypyrrolidin-1-yl]ethylamino]-4-methyl-3,4,6,10b-tetrahydro-1H-pyrazino[2,1-a]isoindol-2-yl]quinoline-8-carbonitrile] | 7.20 |
